Results taken from US20230017045A1, “PYRIDINE AND PYRIMIDINE CARBOXYLATE HERBICIDES AND METHODS OF USE THEREOF” (Dow AgroSciences LLC, priority 2017, published 2023).

The molecules below were run on test plant species (assay: Post-emergent herbicidal activity test (greenhouse, foliar spray, visual growth reduction)). Details: post-emergence, 336 h, ECHCG: barnyardgrass (Echinochloa crus-galli), 140 g ai/ha, 14 days after application, read-out: Visual Growth Reduction (%) 14 Days After Application, ECHCG.
Type: in vivo
Procedure, shortened: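 Seedlings were raised 7-21 d in a greenhouse under a 15 h photoperiod until the first or second true leaf. Each compound, dissolved in acetone:DMSO 97:3 and diluted into a surfactant-containing spray mixture, was then applied at 187 L/ha. Plants were subirrigated, and growth reduction was scored visually at 14 d.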
In the case of Cc1cnc(-c2ccc(Cl)c(C(=O)O)n2)c(F)c1 [F208, 5-Chloro-3′-fluoro-5′-methyl-[2,2′-bipyridine]-6-carboxylic acid], the pest or weed control at 140 g/ha was 0 to 29%.
CCCCOC(=O)c1nc(-c2ccc(Cl)c(OC)c2F)ccc1Cl [F280, Butyl 3-chloro-6-(4-chloro-2-fluoro-3-methoxyphenyl) picolinate] showed a pest or weed control at 140 g/ha of 0 to 29%.
Molecule COc1nc(C(F)(F)F)ccc1-c1nc(C(=O)O)c(Cl)cc1F [F347, 5-Chloro-3-fluoro-2′-methoxy-6′-(trifluoromethyl)-[2,3′-bipyridine]-6-carboxylic acid] has a pest or weed control at 140 g/ha of 85 to 94%.

Same assay, conditions: post-emergence, 336 h, IPOHE: ivy-leaf morning glory (Ipomoea hederacea), 140 g ai/ha, 14 days after application, read-out: Visual Growth Reduction (%) 14 Days After Application, IPOHE
Cc1cnc(-c2ccc(Cl)c(C(=O)O)n2)c(F)c1 [F208, 5-Chloro-3′-fluoro-5′-methyl-[2,2′-bipyridine]-6-carboxylic acid] showed a pest or weed control at 140 g/ha of 0 to 29%.
Molecule CCCCOC(=O)c1nc(-c2ccc(Cl)c(OC)c2F)ccc1Cl [F280, Butyl 3-chloro-6-(4-chloro-2-fluoro-3-methoxyphenyl) picolinate] has a pest or weed control at 140 g/ha of 30 to 44%.
COc1nc(C(F)(F)F)ccc1-c1nc(C(=O)O)c(Cl)cc1F [F347, 5-Chloro-3-fluoro-2′-methoxy-6′-(trifluoromethyl)-[2,3′-bipyridine]-6-carboxylic acid] gave a pest or weed control at 140 g/ha of 95 to 100%.

Same assay, conditions: post-emergence, 336 h, KCHSC: kochia (Bassia scoparia), 140 g ai/ha, 14 days after application, read-out: Visual Growth Reduction (%) 14 Days After Application, KCHSC
Cc1cnc(-c2ccc(Cl)c(C(=O)O)n2)c(F)c1 [F208, 5-Chloro-3′-fluoro-5′-methyl-[2,2′-bipyridine]-6-carboxylic acid] was tested, and the pest or weed control at 140 g/ha was 0 to 29%.
Work on CCCCOC(=O)c1nc(-c2ccc(Cl)c(OC)c2F)ccc1Cl [F280, Butyl 3-chloro-6-(4-chloro-2-fluoro-3-methoxyphenyl) picolinate] yielded a pest or weed control at 140 g/ha of 60 to 74%.
COc1nc(C(F)(F)F)ccc1-c1nc(C(=O)O)c(Cl)cc1F [F347, 5-Chloro-3-fluoro-2′-methoxy-6′-(trifluoromethyl)-[2,3′-bipyridine]-6-carboxylic acid] gave a pest or weed control at 140 g/ha of 85 to 94%.

Same assay, conditions: post-emergence, 336 h, ORYSA: rice (Oryza sativa), 140 g ai/ha, 14 days after application, read-out: Visual Growth Reduction (%) 14 Days After Application, ORYSA
In the case of Cc1cnc(-c2ccc(Cl)c(C(=O)O)n2)c(F)c1 [F208, 5-Chloro-3′-fluoro-5′-methyl-[2,2′-bipyridine]-6-carboxylic acid], the pest or weed control at 140 g/ha was 0 to 29%.
CCCCOC(=O)c1nc(-c2ccc(Cl)c(OC)c2F)ccc1Cl [F280, Butyl 3-chloro-6-(4-chloro-2-fluoro-3-methoxyphenyl) picolinate] gave a pest or weed control at 140 g/ha of 0 to 29%.
COc1nc(C(F)(F)F)ccc1-c1nc(C(=O)O)c(Cl)cc1F [F347, 5-Chloro-3-fluoro-2′-methoxy-6′-(trifluoromethyl)-[2,3′-bipyridine]-6-carboxylic acid] showed a pest or weed control at 140 g/ha of 30 to 44%.

Same assay, conditions: post-emergence, 336 h, SETFA: giant foxtail (Setaria faberi), 140 g ai/ha, 14 days after application, read-out: Visual Growth Reduction (%) 14 Days After Application, SETFA
Work on Cc1cnc(-c2ccc(Cl)c(C(=O)O)n2)c(F)c1 [F208, 5-Chloro-3′-fluoro-5′-methyl-[2,2′-bipyridine]-6-carboxylic acid] yielded a pest or weed control at 140 g/ha of 0 to 29%.
For CCCCOC(=O)c1nc(-c2ccc(Cl)c(OC)c2F)ccc1Cl [F280, Butyl 3-chloro-6-(4-chloro-2-fluoro-3-methoxyphenyl) picolinate], the pest or weed control at 140 g/ha was 0 to 29%.
For COc1nc(C(F)(F)F)ccc1-c1nc(C(=O)O)c(Cl)cc1F [F347, 5-Chloro-3-fluoro-2′-methoxy-6′-(trifluoromethyl)-[2,3′-bipyridine]-6-carboxylic acid], the pest or weed control at 140 g/ha was 85 to 94%.

Same assay, conditions: post-emergence, 336 h, SORVU: grain sorghum (Sorghum vulgare), 140 g ai/ha, 14 days after application, read-out: Visual Growth Reduction (%) 14 Days After Application, SORVU
Cc1cnc(-c2ccc(Cl)c(C(=O)O)n2)c(F)c1 [F208, 5-Chloro-3′-fluoro-5′-methyl-[2,2′-bipyridine]-6-carboxylic acid] showed a pest or weed control at 140 g/ha of 0 to 29%.
CCCCOC(=O)c1nc(-c2ccc(Cl)c(OC)c2F)ccc1Cl [F280, Butyl 3-chloro-6-(4-chloro-2-fluoro-3-methoxyphenyl) picolinate] gave a pest or weed control at 140 g/ha of 0 to 29%.
COc1nc(C(F)(F)F)ccc1-c1nc(C(=O)O)c(Cl)cc1F [F347, 5-Chloro-3-fluoro-2′-methoxy-6′-(trifluoromethyl)-[2,3′-bipyridine]-6-carboxylic acid] showed a pest or weed control at 140 g/ha of 85 to 94%.

Same assay, conditions: post-emergence, 336 h, STEME: common chickweed (Stellaria media), 140 g ai/ha, 14 days after application, read-out: Visual Growth Reduction (%) 14 Days After Application, STEME
Molecule Cc1cnc(-c2ccc(Cl)c(C(=O)O)n2)c(F)c1 [F208, 5-Chloro-3′-fluoro-5′-methyl-[2,2′-bipyridine]-6-carboxylic acid] has a pest or weed control at 140 g/ha of 0 to 29%.
CCCCOC(=O)c1nc(-c2ccc(Cl)c(OC)c2F)ccc1Cl [F280, Butyl 3-chloro-6-(4-chloro-2-fluoro-3-methoxyphenyl) picolinate] gave a pest or weed control at 140 g/ha of 0 to 29%.
COc1nc(C(F)(F)F)ccc1-c1nc(C(=O)O)c(Cl)cc1F [F347, 5-Chloro-3-fluoro-2′-methoxy-6′-(trifluoromethyl)-[2,3′-bipyridine]-6-carboxylic acid] showed a pest or weed control at 140 g/ha of 0 to 29%.

Same assay, conditions: post-emergence, 336 h, TRZAS: wheat, spring (Triticum aestivum), 140 g ai/ha, 14 days after application, read-out: Visual Growth Reduction (%) 14 Days After Application, TRZAS
Cc1cnc(-c2ccc(Cl)c(C(=O)O)n2)c(F)c1 [F208, 5-Chloro-3′-fluoro-5′-methyl-[2,2′-bipyridine]-6-carboxylic acid] was tested, and the pest or weed control at 140 g/ha was 0 to 29%.
Molecule CCCCOC(=O)c1nc(-c2ccc(Cl)c(OC)c2F)ccc1Cl [F280, Butyl 3-chloro-6-(4-chloro-2-fluoro-3-methoxyphenyl) picolinate] has a pest or weed control at 140 g/ha of 0 to 29%.
COc1nc(C(F)(F)F)ccc1-c1nc(C(=O)O)c(Cl)cc1F [F347, 5-Chloro-3-fluoro-2′-methoxy-6′-(trifluoromethyl)-[2,3′-bipyridine]-6-carboxylic acid] gave a pest or weed control at 140 g/ha of 75 to 84%.

Same assay, conditions: post-emergence, 336 h, blackgrass (Alopecurus myosuroides), 14 Days After Application, 140 g ai/ha, read-out: Visual Growth Reduction (%) ALOMY
Work on Cc1cnc(-c2ccc(Cl)c(C(=O)O)n2)c(F)c1 [F208, 5-Chloro-3′-fluoro-5′-methyl-[2,2′-bipyridine]-6-carboxylic acid] yielded a pest or weed control at 140 g/ha of 0 to 29%.
CCCCOC(=O)c1nc(-c2ccc(Cl)c(OC)c2F)ccc1Cl [F280, Butyl 3-chloro-6-(4-chloro-2-fluoro-3-methoxyphenyl) picolinate] was tested, and the pest or weed control at 140 g/ha was 0 to 29%.
Molecule COc1nc(C(F)(F)F)ccc1-c1nc(C(=O)O)c(Cl)cc1F [F347, 5-Chloro-3-fluoro-2′-methoxy-6′-(trifluoromethyl)-[2,3′-bipyridine]-6-carboxylic acid] has a pest or weed control at 140 g/ha of 60 to 74%.

Same assay, conditions: post-emergence, 336 h, canada thistle (Cirsium arvense), 14 Days After Application, 140 g ai/ha, read-out: Visual Growth Reduction (%) CIRAR
For Cc1cnc(-c2ccc(Cl)c(C(=O)O)n2)c(F)c1 [F208, 5-Chloro-3′-fluoro-5′-methyl-[2,2′-bipyridine]-6-carboxylic acid], the pest or weed control at 140 g/ha was 0 to 29%.
In the case of CCCCOC(=O)c1nc(-c2ccc(Cl)c(OC)c2F)ccc1Cl [F280, Butyl 3-chloro-6-(4-chloro-2-fluoro-3-methoxyphenyl) picolinate], the pest or weed control at 140 g/ha was 30 to 44%.
Work on COc1nc(C(F)(F)F)ccc1-c1nc(C(=O)O)c(Cl)cc1F [F347, 5-Chloro-3-fluoro-2′-methoxy-6′-(trifluoromethyl)-[2,3′-bipyridine]-6-carboxylic acid] yielded a pest or weed control at 140 g/ha of 85 to 94%.

Same assay, conditions: post-emergence, 336 h, crabgrass (Digitaria sanguinalis), 14 Days After Application, 140 g ai/ha, read-out: Visual Growth Reduction (%) DIGSA
Cc1cnc(-c2ccc(Cl)c(C(=O)O)n2)c(F)c1 [F208, 5-Chloro-3′-fluoro-5′-methyl-[2,2′-bipyridine]-6-carboxylic acid] gave a pest or weed control at 140 g/ha of 0 to 29%.
CCCCOC(=O)c1nc(-c2ccc(Cl)c(OC)c2F)ccc1Cl [F280, Butyl 3-chloro-6-(4-chloro-2-fluoro-3-methoxyphenyl) picolinate] showed a pest or weed control at 140 g/ha of 0 to 29%.
Work on COc1nc(C(F)(F)F)ccc1-c1nc(C(=O)O)c(Cl)cc1F [F347, 5-Chloro-3-fluoro-2′-methoxy-6′-(trifluoromethyl)-[2,3′-bipyridine]-6-carboxylic acid] yielded a pest or weed control at 140 g/ha of 95 to 100%.

Same assay, conditions: post-emergence, 336 h, lambsquarters (Chenopodium album), 14 Days After Application, 140 g ai/ha, read-out: Visual Growth Reduction (%) CHEAL
Cc1cnc(-c2ccc(Cl)c(C(=O)O)n2)c(F)c1 [F208, 5-Chloro-3′-fluoro-5′-methyl-[2,2′-bipyridine]-6-carboxylic acid] was tested, and the pest or weed control at 140 g/ha was 85 to 94%.
CCCCOC(=O)c1nc(-c2ccc(Cl)c(OC)c2F)ccc1Cl [F280, Butyl 3-chloro-6-(4-chloro-2-fluoro-3-methoxyphenyl) picolinate] gave a pest or weed control at 140 g/ha of 85 to 94%.
COc1nc(C(F)(F)F)ccc1-c1nc(C(=O)O)c(Cl)cc1F [F347, 5-Chloro-3-fluoro-2′-methoxy-6′-(trifluoromethyl)-[2,3′-bipyridine]-6-carboxylic acid] showed a pest or weed control at 140 g/ha of 95 to 100%.

Same assay, conditions: post-emergence, 336 h, redroot pigweed (Amaranthus retroflexus), 14 Days After Application, 140 g ai/ha, read-out: Visual Growth Reduction (%) AMARE
Molecule Cc1cnc(-c2ccc(Cl)c(C(=O)O)n2)c(F)c1 [F208, 5-Chloro-3′-fluoro-5′-methyl-[2,2′-bipyridine]-6-carboxylic acid] has a pest or weed control at 140 g/ha of 0 to 29%.
For CCCCOC(=O)c1nc(-c2ccc(Cl)c(OC)c2F)ccc1Cl [F280, Butyl 3-chloro-6-(4-chloro-2-fluoro-3-methoxyphenyl) picolinate], the pest or weed control at 140 g/ha was 30 to 44%.
COc1nc(C(F)(F)F)ccc1-c1nc(C(=O)O)c(Cl)cc1F [F347, 5-Chloro-3-fluoro-2′-methoxy-6′-(trifluoromethyl)-[2,3′-bipyridine]-6-carboxylic acid] gave a pest or weed control at 140 g/ha of 95 to 100%.

Same assay, conditions: post-emergence, 336 h, wild oat (Avena fatua), 14 Days After Application, 140 g ai/ha, read-out: Visual Growth Reduction (%) AVEFA
With Cc1cnc(-c2ccc(Cl)c(C(=O)O)n2)c(F)c1 [F208, 5-Chloro-3′-fluoro-5′-methyl-[2,2′-bipyridine]-6-carboxylic acid] the pest or weed control at 140 g/ha was 0 to 29%.
CCCCOC(=O)c1nc(-c2ccc(Cl)c(OC)c2F)ccc1Cl [F280, Butyl 3-chloro-6-(4-chloro-2-fluoro-3-methoxyphenyl) picolinate] gave a pest or weed control at 140 g/ha of 0 to 29%.
COc1nc(C(F)(F)F)ccc1-c1nc(C(=O)O)c(Cl)cc1F [F347, 5-Chloro-3-fluoro-2′-methoxy-6′-(trifluoromethyl)-[2,3′-bipyridine]-6-carboxylic acid] showed a pest or weed control at 140 g/ha of 60 to 74%.

Same assay, conditions: post-emergence, 336 h, yellow nutsedge (Cyperus esculentus), 14 Days After Application, 140 g ai/ha, read-out: Visual Growth Reduction (%) CYPES
Work on Cc1cnc(-c2ccc(Cl)c(C(=O)O)n2)c(F)c1 [F208, 5-Chloro-3′-fluoro-5′-methyl-[2,2′-bipyridine]-6-carboxylic acid] yielded a pest or weed control at 140 g/ha of 0 to 29%.
CCCCOC(=O)c1nc(-c2ccc(Cl)c(OC)c2F)ccc1Cl [F280, Butyl 3-chloro-6-(4-chloro-2-fluoro-3-methoxyphenyl) picolinate] gave a pest or weed control at 140 g/ha of 60 to 74%.
With COc1nc(C(F)(F)F)ccc1-c1nc(C(=O)O)c(Cl)cc1F [F347, 5-Chloro-3-fluoro-2′-methoxy-6′-(trifluoromethyl)-[2,3′-bipyridine]-6-carboxylic acid] the pest or weed control at 140 g/ha was 0 to 29%.
